Values joined by “and” are separate entries in the source; they are usually repeats but may differ in a detail not shown here. Equal values may be shown once. Read-outs that look alike come from different tables or passages of the source. Marks after values point to notes of the source that are not given here.
Tests used:
[1] = tested on: HR+, HER2+ BT474 breast cancer spheroids; assay: Multicellular tumor spheroid growth inhibition (SGI), BT474; format: cell-based, human
Protocol: (§1) The purpose of this example was to evaluate the combination effect of PF-07220060 and endocrine therapy in multicellular tumor spheroid growth inhibition (SGI). To model the characteristics and cellular behavior of human tumors, the activity of PF-07220060 was evaluated in three dimensional MCTS models of HR+ breast cancer and AR+ prostate cancer following PF-07220060 treatment as a single agent and in combination with fulvestrant • 1) in HR+, HER2-T47D breast cancer spheroids. • 2) in HR+, HER2+BT474 breast cancer spheroids, • 3) in BT474 spheroids, and • 4) in AR+ prostate carcinoma cell line (LNCaP) prostate cancer spheroids. Spheroids were treated with increasing concentrations of 100, 300, or 1000 nM PF-07220060 and compared to palbociclib at the clinically relevant concentration of 30 nM. Single agent PF-07220060 inhibited spheroid growth in a dose-dependent manner, with highest efficacy (86% SGI over the duration of treatment with 1000 nM) shown in the T47D BC spheroid model (Table 1). Combining 100 nM PF-07220060 with 1 nM fulvestrant in T47D cells increased SGI to 96% compared to either single agent alone (57 to 67% SGI with 100 nM PF-07220060 or 79% SGI with fulvestrant) (Table 1). BT474 spheroids were relatively less sensitive to PF-07220060 resulting in 52% SGI at 1000 nM.

[2] = tested on: HR+, HER2- T47D breast cancer spheroids; assay: Multicellular tumor spheroid growth inhibition (SGI), T47D; format: cell-based, human
Protocol: as §1

[3] = Phase 1/1b clinical trial: plasma pharmacokinetics of PF-07220060; format: in vivo, human; settings: for Cmax / AUC / Tmax / half-life: po; for half-life: arithmetic mean
Protocol: Oral PF-07220060 was administered with at least 8 oz (240 mL) of water on an empty stomach (except during the food effect evaluation on Day-7 in Part 1D). No food or liquids other than water was consumed for 2 hours before and 1 hour following each dose throughout the study for BID dosing. No food or liquids other than water was consumed for 2 hours before and 2 hours after each dose throughout the study for QD dosing.
In the ongoing Phase 1/1b Study, as of Aug. 30, 2022, preliminary PK data for PF-07220060 as monotherapy (Part 1A) and in combination with endocrine therapy (Part 1B and Part 1C) was available from 60 participants with advanced solid tumors. PF-07220060 was administered orally as a single agent at doses ranging from 100 to 500 mg BID, and in combination with either letrozole or fulvestrant at 300 to 400 mg BID. Available plasma concentration-time data of PF-07220060 were analyzed using noncompartmental methods.
Preliminary noncompartmental PK analysis was conducted based on available samples collected from participants in the Study. […] Table 4 presents the summary of PK parameters for PF-07220060 as monotherapy, and in combination with letrozole or fulvestrant.

[4] = 200 mg BID oral monotherapy (Part 1A), C1D15, geometric mean
[5] = 300 mg BID oral + fulvestrant (Part 1C), C1D15, geometric mean
[6] = 300 mg BID oral + letrozole (Part 1B), C1D15, geometric mean
[7] = 300 mg BID oral monotherapy (Part 1A), C1D15, geometric mean
[8] = 400 mg BID oral + fulvestrant (Part 1C), C1D15, geometric mean
[9] = 400 mg BID oral + letrozole (Part 1B), C1D15, geometric mean
[10] = 400 mg BID oral monotherapy (Part 1A), C1D15, geometric mean

## CC(C)n1c(C(C)(C)O)nc2c(F)cc(-c3nc(N[C@@H]4CCOC[C@H]4O)ncc3Cl)cc21 [PF-07220060, 1,5-anhydro-3-({5-chloro-4-[4-fluoro-2-(2-hydroxypropan-2-yl)-1-(propan-2-yl)-1H-benzimidazol-6-yl]pyrimidin-2-yl}amino)-2,3-dideoxy-D-threo-pentitol]
[1]; 100 nM single agent
  SGI: 9%
[1]; 300 nM single agent
  SGI: 16% and 26% and 20%
[1]; 1000 nM single agent
  SGI: 52%
[2]; 100 nM single agent
  SGI: 57% and 67%
[2]; 300 nM single agent
  SGI: 74%
[2]; 1000 nM single agent
  SGI: 86%
[3]; 100 mg BID oral monotherapy (Part 1A), C1D15, geometric mean, n = 2
  CL/F: 24.61 L/h
[3]; [4]
  CL/F: 31.41 L/h
  Cmin: 440 ng/mL
[3]; [5]
  CL/F: 38.02 L/h
  Cmin: 347.4 ng/mL
[3]; [6]
  CL/F: 28.95 L/h
  Cmin: 487.1 ng/mL
[3]; [7]
  CL/F: 37.06 L/h
  Cmin: 470.4 ng/mL
[3]; [8]
  CL/F: 41.86 L/h
  Cmin: 563.3 ng/mL
[3]; [9]
  CL/F: 34.9 L/h
  Cmin: 728.3 ng/mL
[3]; [10]
  CL/F: 49.98 L/h
  Cmin: 450.3 ng/mL
[3]; 500 mg BID oral monotherapy (Part 1A), C1D15, geometric mean
  Cmin: 848.8 ng/mL
[3]; 500 mg BID oral monotherapy (Part 1A), C1D15, n = 1
  CL/F: 40.1^a L/hr
[3]; human, plasma, 100 mg, 100 mg BID oral monotherapy (Part 1A), C1D1 post first dose, geometric mean
  Cmax: 280 ng/mL
[3]; human, plasma, 100 mg, 100 mg BID oral monotherapy (Part 1A), C1D1 post first dose, geometric mean, read-out: AUC12
  AUC: 1780 ng·h/mL
[3]; human, plasma, 100 mg, 100 mg BID oral monotherapy (Part 1A), C1D1 post first dose, median, read-out: Tmax
  Tmax: 2 h
[3]; human, plasma, 100 mg, 100 mg BID oral monotherapy (Part 1A), C1D15, geometric mean, n = 2, read-out: AUCtau
  AUC: 4060 ng·h/mL
[3]; human, plasma, 100 mg, 100 mg BID oral monotherapy (Part 1A), C1D15 post multiple doses, geometric mean
  Cmax: 617 ng/mL
[3]; human, plasma, 100 mg, 100 mg BID oral monotherapy (Part 1A), C1D15 post multiple doses, median, read-out: Tmax
  Tmax: 1 h
[3]; human, plasma, 200 mg, 200 mg BID oral monotherapy (Part 1A), C1D1 post first dose, geometric mean
  Cmax: 454 ng/mL
[3]; human, plasma, 200 mg, 200 mg BID oral monotherapy (Part 1A), C1D1 post first dose, geometric mean, read-out: AUC12
  AUC: 2330 ng·h/mL
[3]; human, plasma, 200 mg, 200 mg BID oral monotherapy (Part 1A), C1D1 post first dose, median, read-out: Tmax
  Tmax: 3.9 h
[3]; human, plasma, 200 mg, 200 mg BID oral monotherapy (Part 1A), C1D15
  half-life: 5.1 h
[3]; human, plasma, 200 mg, 200 mg BID oral monotherapy (Part 1A), C1D15, geometric mean, read-out: AUCtau
  AUC: 6370 ng·h/mL
[3]; human, plasma, 200 mg, 200 mg BID oral monotherapy (Part 1A), C1D15 post multiple doses, geometric mean
  Cmax: 1010 ng/mL
[3]; human, plasma, 200 mg, 200 mg BID oral monotherapy (Part 1A), C1D15 post multiple doses, median, read-out: Tmax
  Tmax: 2.5 h
[3]; human, plasma, 300 mg BID oral + fulvestrant (Part 1C), C1D1 post first dose, geometric mean
  Cmax: 849 ng/mL
[3]; human, plasma, 300 mg BID oral + fulvestrant (Part 1C), C1D1 post first dose, geometric mean, read-out: AUC12
  AUC: 6130 ng·h/mL
[3]; human, plasma, 300 mg BID oral + fulvestrant (Part 1C), C1D1 post first dose, median, read-out: Tmax
  Tmax: 2 h
[3]; human, plasma, 300 mg BID oral + fulvestrant (Part 1C), C1D15
  half-life: 5.7 h
[3]; human, plasma, 300 mg BID oral + fulvestrant (Part 1C), C1D15, geometric mean, read-out: AUCtau
  AUC: 7890 ng·h/mL
[3]; human, plasma, 300 mg BID oral + fulvestrant (Part 1C), C1D15 post multiple doses, geometric mean
  Cmax: 1190 ng/mL
[3]; human, plasma, 300 mg BID oral + fulvestrant (Part 1C), C1D15 post multiple doses, median, read-out: Tmax
  Tmax: 1 h
[3]; human, plasma, 300 mg BID oral + letrozole (Part 1B), C1D1 post first dose, geometric mean
  Cmax: 989 ng/mL
[3]; human, plasma, 300 mg BID oral + letrozole (Part 1B), C1D1 post first dose, geometric mean, read-out: AUC12
  AUC: 6440 ng·h/mL
[3]; human, plasma, 300 mg BID oral + letrozole (Part 1B), C1D1 post first dose, median, read-out: Tmax
  Tmax: 3 h
[3]; human, plasma, 300 mg BID oral + letrozole (Part 1B), C1D15
  half-life: 4.1 h
[3]; human, plasma, 300 mg BID oral + letrozole (Part 1B), C1D15, geometric mean, read-out: AUCtau
  AUC: 10400 ng·h/mL
[3]; human, plasma, 300 mg BID oral + letrozole (Part 1B), C1D15 post multiple doses, geometric mean
  Cmax: 1520 ng/mL
[3]; human, plasma, 300 mg BID oral + letrozole (Part 1B), C1D15 post multiple doses, median, read-out: Tmax
  Tmax: 1 h
[3]; human, plasma, 300 mg, 300 mg BID oral monotherapy (Part 1A), C1D1 post first dose, geometric mean
  Cmax: 741 ng/mL
[3]; human, plasma, 300 mg, 300 mg BID oral monotherapy (Part 1A), C1D1 post first dose, geometric mean, read-out: AUC12
  AUC: 4560 ng·h/mL
[3]; human, plasma, 300 mg, 300 mg BID oral monotherapy (Part 1A), C1D1 post first dose, median, read-out: Tmax
  Tmax: 3.8 h
[3]; human, plasma, 300 mg, 300 mg BID oral monotherapy (Part 1A), C1D15, geometric mean, read-out: AUCtau
  AUC: 8100 ng·h/mL
[3]; human, plasma, 300 mg, 300 mg BID oral monotherapy (Part 1A), C1D15 post multiple doses, geometric mean
  Cmax: 1170 ng/mL
[3]; human, plasma, 300 mg, 300 mg BID oral monotherapy (Part 1A), C1D15 post multiple doses, median, read-out: Tmax
  Tmax: 2.1 h
[3]; human, plasma, 400 mg BID oral + fulvestrant (Part 1C), C1D1 post first dose, geometric mean
  Cmax: 730 ng/mL
[3]; human, plasma, 400 mg BID oral + fulvestrant (Part 1C), C1D1 post first dose, geometric mean, read-out: AUC12
  AUC: 4840 ng·h/mL
[3]; human, plasma, 400 mg BID oral + fulvestrant (Part 1C), C1D1 post first dose, median, read-out: Tmax
  Tmax: 2.2 h
[3]; human, plasma, 400 mg BID oral + fulvestrant (Part 1C), C1D15
  half-life: 6.6 h
[3]; human, plasma, 400 mg BID oral + letrozole (Part 1B), C1D1 post first dose, geometric mean
  Cmax: 950 ng/mL
[3]; human, plasma, 400 mg BID oral + letrozole (Part 1B), C1D1 post first dose, geometric mean, read-out: AUC12
  AUC: 7110 ng·h/mL
[3]; human, plasma, 400 mg BID oral + letrozole (Part 1B), C1D1 post first dose, median, read-out: Tmax
  Tmax: 2.2 h
[3]; human, plasma, 400 mg BID oral + letrozole (Part 1B), C1D15, geometric mean, read-out: AUCtau
  AUC: 11500 ng·h/mL
[3]; human, plasma, 400 mg BID oral + letrozole (Part 1B), C1D15 post multiple doses, geometric mean
  Cmax: 1420 ng/mL
[3]; human, plasma, 400 mg BID oral + letrozole (Part 1B), C1D15 post multiple doses, median, read-out: Tmax
  Tmax: 1.6 h
[3]; human, plasma, 400 mg BID, 400 mg BID oral + fulvestrant (Part 1C), C1D15, geometric mean, read-out: AUCtau
  AUC: 9560 ng·h/mL
[3]; human, plasma, 400 mg BID, 400 mg BID oral + fulvestrant (Part 1C), C1D15 post multiple doses, geometric mean
  Cmax: 1380 ng/mL
[3]; human, plasma, 400 mg BID, 400 mg BID oral + fulvestrant (Part 1C), C1D15 post multiple doses, median, read-out: Tmax
  Tmax: 1.1 h
[3]; human, plasma, 400 mg, 400 mg BID oral monotherapy (Part 1A), C1D1 post first dose, geometric mean
  Cmax: 766 ng/mL
[3]; human, plasma, 400 mg, 400 mg BID oral monotherapy (Part 1A), C1D1 post first dose, geometric mean, read-out: AUC12
  AUC: 5110 ng·h/mL
[3]; human, plasma, 400 mg, 400 mg BID oral monotherapy (Part 1A), C1D1 post first dose, median, read-out: Tmax
  Tmax: 2.1 h
[3]; human, plasma, 400 mg, 400 mg BID oral monotherapy (Part 1A), C1D15, n = 2
  half-life: 6.6 h
[3]; human, plasma, 400 mg, 400 mg BID oral monotherapy (Part 1A), C1D15, geometric mean, read-out: AUCtau
  AUC: 8000 ng·h/mL
[3]; human, plasma, 400 mg, 400 mg BID oral monotherapy (Part 1A), C1D15 post multiple doses, geometric mean
  Cmax: 949 ng/mL
[3]; human, plasma, 400 mg, 400 mg BID oral monotherapy (Part 1A), C1D15 post multiple doses, median, read-out: Tmax
  Tmax: 1 h
[3]; human, plasma, 500 mg, 500 mg BID oral monotherapy (Part 1A), C1D1 post first dose, geometric mean
  Cmax: 637 ng/mL
[3]; human, plasma, 500 mg, 500 mg BID oral monotherapy (Part 1A), C1D1 post first dose, geometric mean, read-out: AUC12
  AUC: 4170 ng·h/mL
[3]; human, plasma, 500 mg, 500 mg BID oral monotherapy (Part 1A), C1D1 post first dose, median, read-out: Tmax
  Tmax: 1.9 h
[3]; human, plasma, 500 mg, 500 mg BID oral monotherapy (Part 1A), C1D15, n = 1, read-out: AUCtau
  AUC: 12500 ng·h/mL
[3]; human, plasma, 500 mg, 500 mg BID oral monotherapy (Part 1A), C1D15 post multiple doses, geometric mean
  Cmax: 1760 ng/mL
[3]; human, plasma, 500 mg, 500 mg BID oral monotherapy (Part 1A), C1D15 post multiple doses, median, read-out: Tmax
  Tmax: 4 h
[3]; human, plasma, following oral dose administration, across cohorts (100 to 500 mg BID), read-out: median Tmax values
  Tmax: 1 to 4 h
[3]; human, plasma, 100 mg BID oral monotherapy (Part 1A), C1D15, geometric mean, read-out: Cmin
  concentration at 15 day: 231 ng/mL

— patent US20250041298A1, “CDK4 INHIBITOR FOR THE TREATMENT OF CANCER” (Pfizer Inc., priority 2021, published 2025)
